# Assay results published in patent publication US5399487A, “6-peptidylamino-1-naphthalenesulfonamides useful as fluorogenic proteolytic enzyme substrates” (Haematologic Technologies, Inc., priority 1993, dated 1995).
# Where a SMILES comes first, the peptide text is derived from it. The star is where a group is joined. pNA = O=[N+]([O-])c1ccc(N*)cc1; Tos = Cc1ccc(S(=O)(=O)*)cc1
# Columns and labels:
# Format in all cases: biochemical
# [1] = target: T1, factor Xa (Homo sapiens, UniProt P00742); assay: Fluorogenic enzyme assay (Example 5); set-up: key to Kinetic constants, Xa (symbol b): slow substrate hydrolysis, no kinetic constants calculated
# Procedure: (§1) Enzyme assays (except factor VIIa assays, see below) were conducted in 20 mM Tris, 150 mM NaCl, pH 7.4 (TBS) at room temperature (22° C.). The final volume for all reaction mixtures was 2.0 ml. Fluorogenic substrates were dissolved in DMSO to a stock concentration of 10 mM. The 10 mM stock solution was diluted in TBS to the final working concentration prior to all assays. Enzyme was added to mixtures containing buffer components and substrate and the initial rate of substrate hydrolysis was measured as the change in fluorescent intensity over time, corresponding to the generation of the particular 6-amino-1-naphthalenesulfonamide fluorophore from the provided substrate. Quantitation of substrate hydrolysis was accomplished by establishing a standard curve from the appropriate fluorescent moiety. Fluorescence was monitored (continuously or discontinuously) using a Perkin Elmer fluorescence spectrophotometer, model MPF-44A, equipped with a standard chart recorder. The fluorophore was detected using monochrometers set at an excitation wavelength of 352 nm and an emission wavelength of 470 nm. Light scattering artifacts were minimized using a 399 nm cut off filter in the emission light beam.
# (§2) The kinetic constants of substrate hydrolysis were determined using the non-linear least squares regression analysis program ENZFITTER (Cambridge, UK). This program was used to iteratively fit initial rates of substrate hydrolysis to the Michaelis-Menten equation and the kinetic constants of substrate hydrolysis (Km) and (kcat) were calculated.
# [2] = target: activated protein C (APC) (Homo sapiens, UniProt P04070); assay: Fluorogenic enzyme assay (Example 5); conditions: for TIME TO 10% HYDROLYSIS (HOURS), APC: substrate 1 μM; for Km / kcat /Km, APC / kcat, APC: Table 9
# Procedure: as §1, §2
# [3] = target: factor IXa (Homo sapiens, UniProt P00740); assay: Fluorogenic enzyme assay (Example 5); set-up: key to Kinetic constants, IXa (symbol b): slow substrate hydrolysis, no kinetic constants calculated; conditions: for Kinetic constants, IXa (symbol b) / Km / kcat, IXa / kcat/Km, IXa: Table 9; for hydrolysis, IXa (symbol d): at 100 hours; for hydrolysis, IXa (symbol d) / TIME TO 10% HYDROLYSIS (HOURS), IXa: 100 nM enzyme, substrate 1 μM
# Procedure: as §1, §2
# [4] = target: tissue plasminogen activator (t-PA) (Homo sapiens, UniProt P00750); assay: Fluorogenic enzyme assay (Example 5); conditions: 100 nM enzyme, substrate 1 μM; for hydrolysis, t-PA (symbol d): at 100 hours
# Procedure: as §1, §2
# [5] = target: plasmin (Plm) (Homo sapiens, UniProt P00747); assay: Fluorogenic enzyme assay (Example 5); conditions: substrate 1 μM
# Procedure: as §1, §2
# [6] = target: urokinase (u-PA) (Homo sapiens, UniProt P00749); assay: Fluorogenic enzyme assay (Example 5); conditions: 100 nM enzyme, substrate 1 μM; for hydrolysis, u-PA (symbol d): at 100 hours
# Procedure: as §1, §2
# [7] = target: T2, factor VIIa (Homo sapiens, UniProt P08709); assay: Fluorogenic enzyme assay, relative hydrolysis rates (Table 8); conditions: at 100 hours; 10 nM enzyme, substrate 1 μM
# T2 construct: directly measure the enzymatic activity of factor VIIa in the presence and absence of tissue factor and phospholipid
# T2 sequence (P08709 213-466 limits assumed): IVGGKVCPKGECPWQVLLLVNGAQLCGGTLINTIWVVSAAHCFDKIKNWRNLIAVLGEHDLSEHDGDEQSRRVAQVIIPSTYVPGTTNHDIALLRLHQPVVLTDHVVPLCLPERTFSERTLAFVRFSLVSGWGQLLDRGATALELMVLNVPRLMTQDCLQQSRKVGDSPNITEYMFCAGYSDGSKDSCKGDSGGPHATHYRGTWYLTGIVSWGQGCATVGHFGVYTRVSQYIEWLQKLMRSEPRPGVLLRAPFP
# T2 sequence (P08709 61-212 limits assumed): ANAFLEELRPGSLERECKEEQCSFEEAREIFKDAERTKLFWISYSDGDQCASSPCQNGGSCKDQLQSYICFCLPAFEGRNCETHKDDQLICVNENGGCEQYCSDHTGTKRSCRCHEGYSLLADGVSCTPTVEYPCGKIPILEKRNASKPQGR
# Procedure: as §1
# Factor VII assays were conducted in 20 mM HEPES, 150 mM NaCl, 5 mM CaCl2, pH 7.4 (HBS) at 37° C. The final volume for all reactions was 1.6 ml. 6-(Mes-D-Leu-Gly-Arg)amino-1-(N,N-diethyl)naphthalenesulfonamide was dissolved in DMSO to a stock concentration of 10 mM. This 10 mM stock solution of was diluted in HBS to final working concentration prior to all assays. For reactions involving tissue factor (TF) and phospholipid vesicles, recombinant human tissue factor was solubilized in either 0.04% n-dodecyl octaethylene glycol (C12 E8) or 0.8% octyl glucoside. The TF/n-dodecyl octaethylene glycol was then relipidated into PCPS or PC vesicles by a 30 minute incubation step as described by Lawson & Mann, J. Biol. Chem. 266: 11317-11327 (1991). TF/octyl glucoside was relipidated into PC or PCPS vesicles by a thirty minute incubation step followed by exhaustive dialysis. The final concentration of tissue factor used in the studies described here ranged from 2 to 50 nM depending on the nature of the experiment.
# Fifteen minutes prior to the start of all reactions factor VIIa was added to the reaction system. This incubation period was followed by the addition of substrate (1 μM to 400 μM) to the mixture to start the reaction. In experiments designed to determine kinetic constants of substrate hydrolysis, 50 nM rVIIa was used when no tissue factor was present in the reaction system, while 0.5 nM rVIIa was used when tissue factor was present in the reaction system. The rate of substrate hydrolysis was measured by change in fluorescence over time, which corresponded with the generation of the 6-amino-1-(N,N-diethyl)naphthalenesulfonamide from the provided substrate. The kinetic constants of 6-(Mes-D-Leu-Gly-Arg)amino-1-(N,N-diethyl)naphthalenesulfonamide hydrolysis as a function of factor VIIa/tissue factor complex assembly are shown in Table 10.
# [8] = target: T3, thrombin (IIa) (Homo sapiens, UniProt P00734); assay: Fluorogenic enzyme assay (Example 5); set-up: key to Kinetic constants, IIa (symbol b): slow substrate hydrolysis, no kinetic constants calculated
# T3 construct: 0.5 nM human thrombin (IIa)
# Procedure: as §1, §2
# [9] = target: T1, factor Xa; assay: Kinetic constants of substrate hydrolysis, Chromozyme TH vs TosGPR-ANSN (Table A); conditions: 22° C., 0.02M TBS pH 7.4, 0.15M NaCl
# Procedure: (§3) The 6-amino-1-naphthalenesulfonamide detecting group increased the specificity of the overall kinetic efficiency of substrate hydrolysis by thrombin relative to the rate of hydrolysis of the p-nitroanilide substrate chromozyme TH (American Diagnostics). Commercially available substrate (Chromozyme TH, TosGPR-p-NA) was compared to a substrate of the present invention, Tosgly-pro-arg-ANSN(i-C4 H9) (TosGPR-ANSNH(i-C4 H9)) in an assay performed at 22° C. in 0.02M TBS buffer at pH 7.4, containing 0.15M NaCl.
# [10] = target: T4, factor IIa (Homo sapiens, UniProt P00734); assay: as above; conditions: 22° C., 0.02M TBS pH 7.4, 0.15M NaCl
# T4 construct: 0.5 nM human thrombin (IIa)
# Procedure: as §3
# [11] = 100 nM enzyme (footnote b), substrate 1 μM
# [12] = at 100 hours, 10 nM enzyme, substrate 1 μM
# [13] = 1 nM enzyme (footnote c), substrate 1 μM
# Chain of tissue plasminogen activator (t-PA) (P00750 36-562, species assumed): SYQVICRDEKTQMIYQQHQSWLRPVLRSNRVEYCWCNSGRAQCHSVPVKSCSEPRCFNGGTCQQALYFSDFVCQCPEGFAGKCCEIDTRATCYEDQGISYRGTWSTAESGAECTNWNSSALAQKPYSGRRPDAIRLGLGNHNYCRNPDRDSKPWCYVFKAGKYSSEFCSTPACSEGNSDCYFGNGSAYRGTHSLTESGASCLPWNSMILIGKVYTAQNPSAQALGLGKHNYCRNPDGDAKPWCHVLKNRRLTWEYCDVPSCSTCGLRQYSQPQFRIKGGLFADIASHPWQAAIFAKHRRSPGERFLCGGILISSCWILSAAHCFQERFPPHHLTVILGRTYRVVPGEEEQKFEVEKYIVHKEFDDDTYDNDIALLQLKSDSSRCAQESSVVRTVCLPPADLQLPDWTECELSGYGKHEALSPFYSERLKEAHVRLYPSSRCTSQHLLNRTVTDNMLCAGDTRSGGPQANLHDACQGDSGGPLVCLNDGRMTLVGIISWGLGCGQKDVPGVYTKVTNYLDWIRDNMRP
# Chain of activated protein C (APC) (P04070 212-461 limits assumed): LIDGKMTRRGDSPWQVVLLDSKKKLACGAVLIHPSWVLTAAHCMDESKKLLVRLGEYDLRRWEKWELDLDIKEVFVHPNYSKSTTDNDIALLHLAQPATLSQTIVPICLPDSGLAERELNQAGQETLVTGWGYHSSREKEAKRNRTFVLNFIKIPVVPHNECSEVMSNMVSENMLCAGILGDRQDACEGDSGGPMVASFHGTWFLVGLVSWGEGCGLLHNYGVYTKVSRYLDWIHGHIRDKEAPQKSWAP
# Chain of activated protein C (APC) (P04070 43-197 limits assumed): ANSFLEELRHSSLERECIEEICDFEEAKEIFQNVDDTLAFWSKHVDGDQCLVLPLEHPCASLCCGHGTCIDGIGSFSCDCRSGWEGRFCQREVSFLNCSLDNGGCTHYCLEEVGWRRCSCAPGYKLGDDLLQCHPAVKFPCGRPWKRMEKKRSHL
# Chain of plasmin (Plm) (P00747 581-810 limits assumed, species assumed): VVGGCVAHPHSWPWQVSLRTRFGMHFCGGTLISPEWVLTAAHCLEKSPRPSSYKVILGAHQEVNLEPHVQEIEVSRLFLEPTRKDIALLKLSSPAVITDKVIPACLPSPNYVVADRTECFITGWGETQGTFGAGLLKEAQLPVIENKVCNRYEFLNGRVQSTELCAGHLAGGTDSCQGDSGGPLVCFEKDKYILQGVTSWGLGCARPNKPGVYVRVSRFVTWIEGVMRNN
# Chain of plasmin (Plm) (P00747 97-580 limits assumed, species assumed): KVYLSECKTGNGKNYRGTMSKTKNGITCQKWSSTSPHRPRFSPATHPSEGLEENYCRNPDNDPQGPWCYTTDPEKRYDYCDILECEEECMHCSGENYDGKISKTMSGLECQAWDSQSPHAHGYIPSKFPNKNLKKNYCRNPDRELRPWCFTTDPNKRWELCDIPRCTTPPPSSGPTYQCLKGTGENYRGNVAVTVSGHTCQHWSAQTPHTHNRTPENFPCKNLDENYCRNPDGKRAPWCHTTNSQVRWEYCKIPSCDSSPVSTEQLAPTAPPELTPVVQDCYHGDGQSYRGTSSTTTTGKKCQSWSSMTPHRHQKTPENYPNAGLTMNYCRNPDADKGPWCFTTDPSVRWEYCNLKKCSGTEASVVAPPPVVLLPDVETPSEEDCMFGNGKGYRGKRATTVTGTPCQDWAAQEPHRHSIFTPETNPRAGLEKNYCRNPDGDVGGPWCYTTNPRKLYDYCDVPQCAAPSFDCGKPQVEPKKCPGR
# Chain of factor IXa (P00740 227-461 limits assumed): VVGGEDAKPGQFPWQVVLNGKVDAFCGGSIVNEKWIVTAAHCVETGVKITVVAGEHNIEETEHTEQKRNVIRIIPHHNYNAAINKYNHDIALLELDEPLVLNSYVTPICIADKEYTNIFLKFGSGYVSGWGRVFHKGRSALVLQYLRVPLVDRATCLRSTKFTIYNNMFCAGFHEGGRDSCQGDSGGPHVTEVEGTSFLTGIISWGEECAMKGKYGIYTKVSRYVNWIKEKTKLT
# Chain of factor IXa (P00740 47-191 limits assumed): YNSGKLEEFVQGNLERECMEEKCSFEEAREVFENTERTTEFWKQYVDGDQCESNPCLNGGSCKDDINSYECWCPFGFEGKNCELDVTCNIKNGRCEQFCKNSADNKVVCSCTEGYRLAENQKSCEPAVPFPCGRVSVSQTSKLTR
# T1 sequence (P00742 235-488 limits assumed): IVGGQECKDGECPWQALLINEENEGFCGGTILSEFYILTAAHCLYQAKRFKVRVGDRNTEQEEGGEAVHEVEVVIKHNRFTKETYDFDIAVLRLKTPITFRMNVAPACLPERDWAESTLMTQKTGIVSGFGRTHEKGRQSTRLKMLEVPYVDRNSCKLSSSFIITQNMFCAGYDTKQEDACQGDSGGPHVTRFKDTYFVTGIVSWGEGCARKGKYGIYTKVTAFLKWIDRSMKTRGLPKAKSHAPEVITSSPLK
# T1 sequence (P00742 41-179 limits assumed): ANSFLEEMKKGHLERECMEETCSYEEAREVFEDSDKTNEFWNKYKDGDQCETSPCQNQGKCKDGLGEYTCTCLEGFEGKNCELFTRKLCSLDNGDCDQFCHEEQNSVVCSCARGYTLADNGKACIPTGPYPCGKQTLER
Compound,"TIME TO 10% HYDROLYSIS (HOURS), APC ([2]; 10 nM enzyme)",Km [2],"kcat /Km, APC [2]","kcat, APC [2]","hydrolysis, IXa (symbol d) [3]","hydrolysis, t-PA (symbol d) [4]","TIME TO 10% HYDROLYSIS (HOURS), Plm ([5]; 100 nM enzyme (footnote b))","TIME TO 10% HYDROLYSIS (HOURS), u-PA [6]","hydrolysis, VIIa (symbol d) [7]","TIME TO 10% HYDROLYSIS (HOURS), IIa ([8]; 10 nM enzyme, substrate 1 μM)","TIME TO 10% HYDROLYSIS (HOURS), Xa ([1]; 10 nM enzyme, substrate 1 μM)",Km ([1]; Table 9),"kcat /Km, Xa ([1]; Table 9)","kcat, Xa ([1]; Table 9)","TIME TO 10% HYDROLYSIS (HOURS), Plm ([5]; 10 nM enzyme)",Km ([8]; Table 9),"kcat, IIa ([8]; Table 9)",further results
Br.Br.Br.N=C(N)NCCC[C@H](NC(=O)CNC(=O)CN)C(=O)N[C@@H](CCCNC(=N)N)C(=O)Nc1ccc2c(S(=O)(=O)NC3CCCCC3)cccc2c1 [GGRR-ANSNH(cyclo-C6 H11)],0.5 h,267 µM,11600 M⁻¹ s⁻¹,3.1 s⁻¹,d (hydrolysis at 100 hours was less than 10%.),d (hydrolysis at 100 hours was less than 10%.),2.5 h,24 h,d (hydrolysis at 100 hours was less than 10%.),93 h,,,,,,,,"TIME TO 10% HYDROLYSIS (HOURS), Xa [1, 11]: 46 h; Kinetic constants, Xa (symbol b) ([1]; Table 9): b; Kinetic constants, IXa (symbol b) [3]: b; Kinetic constants, IIa (symbol b) ([8]; Table 9): b"
Br.Br.Br.CN(C)S(=O)(=O)c1cccc2cc(NC(=O)[C@H](CCCNC(=N)N)NC(=O)[C@@H](N)CCCCN)ccc12 [KR-ANSN(CH3)2],,,,,d (hydrolysis at 100 hours was less than 10%.),d (hydrolysis at 100 hours was less than 10%.),8 h,,d (hydrolysis at 100 hours was less than 10%.),,,,,,,,,"hydrolysis, Xa (symbol d) [1, 12]: d (hydrolysis at 100 hours was less than 10%.); TIME TO 10% HYDROLYSIS (HOURS), APC ([2]; 100 nM enzyme (footnote b)): 8 h; hydrolysis, u-PA (symbol d) [6]: d (hydrolysis at 100 hours was less than 10%.); hydrolysis, IIa (symbol d) [8, 12]: d (hydrolysis at 100 hours was less than 10%.)"
CC(C)C[C@@H](NC(=O)OCc1ccccc1)C(=O)N1CCC[C@H]1C(=O)N[C@@H](CCCNC(=N)N)C(=O)Nc1ccc2c(S(=O)(=O)N3CCCCC3)cccc2c1 [ZD-LPR-ANSN(CH2)5],0.5 h,246 µM,28900 M⁻¹ s⁻¹,7.1 s⁻¹,,,,1 h,d (hydrolysis at 100 hours was less than 10%.),,0.02 h,26.3 µM,133000 M⁻¹ s⁻¹,3.5 s⁻¹,0.08 h,4.2 µM,16.1 s⁻¹,"TIME TO 10% HYDROLYSIS (HOURS), IXa [3]: 7 h; Km [3]: 141 µM; kcat, IXa [3]: 0.39 s⁻¹; kcat/Km, IXa [3]: 2750 M⁻¹ s⁻¹; TIME TO 10% HYDROLYSIS (HOURS), t-PA [4]: 1 h; TIME TO 10% HYDROLYSIS (HOURS), IIa [8, 13]: 0.01 h"
"Cc1ccc(S(=O)(=O)NCC(=O)N2CCC[C@H]2C(=O)N[C@@H](CCCNC(=N)N)C(=O)Nc2ccc([N+](=O)[O-])cc2)cc1 [Chromozyme TH, reference compound] (Tos-Gly-Pro-Arg-pNA)",,,,,,,,,,,,,,,,,,Kcat [9]: 244 s⁻¹; Km [9]: 364 µM; Kcat [10]: 14.1; Km [10]: 13.8 µM
Br.Br.CC(C)C[C@@H](N)C(=O)N1CCC[C@H]1C(=O)N[C@@H](CCCNC(=N)N)C(=O)Nc1ccc2c(S(=O)(=O)N3CCCCC3)cccc2c1 [D-LPR-ANSN(CH2)5],0.02 h,160 µM,6880 M⁻¹ s⁻¹,1.1 s⁻¹,,,,1 h,d (hydrolysis at 100 hours was less than 10%.),,0.4 h,400 µM,7250 M⁻¹ s⁻¹,2.9 s⁻¹,0.33 h,7.7 µM,11.6 s⁻¹,"TIME TO 10% HYDROLYSIS (HOURS), IXa [3]: 4 h; Km [3]: 343 µM; kcat, IXa [3]: 0.4 s⁻¹; kcat/Km, IXa [3]: 1170 M⁻¹ s⁻¹; TIME TO 10% HYDROLYSIS (HOURS), t-PA [4]: 1.3 h; TIME TO 10% HYDROLYSIS (HOURS), IIa [8, 13]: 0.01 h"
"CN(C)S(=O)(=O)c1cccc2cc(NC(=O)[C@H](CCCNC(=N)N)NC(=O)[C@H](CCCCNC(=O)OCc3ccccc3)NC(=O)OC(C)(C)C)ccc12 [(N^α -Boc,N^.cndot. -Z)KR-ANSN(CH23)2]",,,,,d (hydrolysis at 100 hours was less than 10%.),d (hydrolysis at 100 hours was less than 10%.),1.5 h,,d (hydrolysis at 100 hours was less than 10%.),18 h,,,,,,,,"TIME TO 10% HYDROLYSIS (HOURS), Xa [1, 11]: 24 h; TIME TO 10% HYDROLYSIS (HOURS), APC ([2]; 100 nM enzyme (footnote b)): 11 h; hydrolysis, u-PA (symbol d) [6]: d (hydrolysis at 100 hours was less than 10%.)"
CCCNS(=O)(=O)c1cccc2cc(NC(=O)[C@H](CCCNC(=N)N)NC(=O)[C@H](Cc3ccccc3)NC(=O)[C@@H]3CCCN3)ccc12.Cl.Cl [PFR-ANSNHC3 H7],0.25 h,240 µM,19600 M⁻¹ s⁻¹,4.7 s⁻¹,d (hydrolysis at 100 hours was less than 10%.),d (hydrolysis at 100 hours was less than 10%.),,6 h,d (hydrolysis at 100 hours was less than 10%.),5 h,1.25 h,667 µM,2000 M⁻¹ s⁻¹,1.33 s⁻¹,13 h,600 µM,0.36 s⁻¹,"Kinetic constants, IXa (symbol b) [3]: b; kcat /Km, IIa ([8]; Table 9): 600 M⁻¹ s⁻¹"
